Values after ≈ are worked out from the molar mass of the structure shown. Like-named read-outs stand apart in the source and are kept apart here.
Tests used:
Escherichia coli = test: Effect of inoculum size on susceptibility of Enterobacteriaceae
Staphylococcus Aureus = test: Effect of inoculum size on susceptibility of Staphylococcus aureus; format: cell-based; conditions: for MICB /MICA: MIC at 10^6 over MIC at 10^2 organisms; for MIC: Staphylococcus aureus, geometric means, read-out: Minimum inhibitory concentration
Edwardsiella tarda = test: Growth inhibitory activity, antibiotic dilution technique; conditions: read-out: Minimum inhibitory concentration
Enterobacter aerogenes = test: Effect of inoculum size on susceptibility of Enterobacteriaceae; conditions: Klebsiella aerogenes, read-out: Minimum Inhibitory Concentration, Enterobacter aerogenes strain 1
[1] = biological target: T1, β-lactamase Class III Type a, Escherichia coli TEM (Escherichia coli, UniProt P62593); format: biochemical
T1 construct: cell-free preparations of various β-lactamases; endogenous in cells; host or cells: Escherichia coli strain TEM
T1 sequence (P62593 24-286 limits assumed): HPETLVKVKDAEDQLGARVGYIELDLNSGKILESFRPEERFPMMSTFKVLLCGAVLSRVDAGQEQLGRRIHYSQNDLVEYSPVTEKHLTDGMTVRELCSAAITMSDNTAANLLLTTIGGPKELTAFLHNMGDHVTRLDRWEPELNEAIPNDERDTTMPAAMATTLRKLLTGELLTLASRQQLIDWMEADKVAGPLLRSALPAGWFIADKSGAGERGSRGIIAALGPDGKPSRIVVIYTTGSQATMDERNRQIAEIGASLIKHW
Method: (§1) Miscellaneous. Methods for determining bactericidal activity and susceptibility to cell-free β-lactamase were those previously used; Leitner et al., BL-S640, A Cephalosporin With a Broad Spectrum of Antibacterial Activity: Properties in vitro, Antimicrob. Agents Chemother.
(§2) Susceptibility to β-lactamase. Susceptibility to enzymic hydrolysis was assessed by determining relative rates of hydrolysis by cell-free preparations of various β-lactamases (Table 6).

[2] = tested on: β-lactamase Class IV Type a, Klebsiella pneumoniae 53; format: biochemical
Method: as §1, §2

[3] = biological target: β-lactamase Class I Type b, Escherichia coli 719 (Escherichia coli, UniProt P00811); format: biochemical
β-lactamase Class I Type b, Escherichia coli 719, sequence (P00811 20-377): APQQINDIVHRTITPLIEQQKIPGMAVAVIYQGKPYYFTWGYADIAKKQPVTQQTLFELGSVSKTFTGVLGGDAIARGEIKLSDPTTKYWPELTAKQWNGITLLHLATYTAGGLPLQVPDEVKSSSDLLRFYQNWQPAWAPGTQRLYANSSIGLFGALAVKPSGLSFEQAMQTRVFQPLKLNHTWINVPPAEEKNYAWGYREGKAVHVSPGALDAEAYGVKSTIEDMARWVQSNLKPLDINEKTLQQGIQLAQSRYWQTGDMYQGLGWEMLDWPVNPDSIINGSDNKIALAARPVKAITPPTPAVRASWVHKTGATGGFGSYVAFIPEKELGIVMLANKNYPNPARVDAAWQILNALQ
Method: as §1, §2

[4] = tested on: β-lactamase Class II Type a, Proteus mirabilis 1266; format: biochemical
Method: as §1, §2

[5] = tested on: β-lactamase Class IV Type b, Klebsiella pneumoniae 1169; format: biochemical
Method: as §1, §2

[6] = biological target: β-lactamase Class I Type a, Enterobacter cloacae 214 (Enterobacter cloacae, UniProt P05364); format: biochemical
β-lactamase Class I Type a, Enterobacter cloacae 214, sequence (P05364 21-381): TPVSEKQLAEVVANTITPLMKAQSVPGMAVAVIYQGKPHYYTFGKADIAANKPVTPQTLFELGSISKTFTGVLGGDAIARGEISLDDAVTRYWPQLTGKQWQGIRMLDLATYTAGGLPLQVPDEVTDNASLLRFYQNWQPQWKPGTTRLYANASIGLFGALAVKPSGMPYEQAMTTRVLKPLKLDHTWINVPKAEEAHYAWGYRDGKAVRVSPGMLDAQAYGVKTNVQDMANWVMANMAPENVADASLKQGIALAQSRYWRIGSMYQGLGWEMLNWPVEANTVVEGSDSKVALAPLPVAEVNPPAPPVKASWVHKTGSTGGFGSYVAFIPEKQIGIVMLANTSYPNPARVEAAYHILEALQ
Method: as §1, §2

Bacteroides Fragilis = test: Growth inhibitory activity, antibiotic dilution technique (obligate anaerobes); format: cell-based; conditions: 3 strains, geometric mean when applicable, read-out: Minimum inhibitory concentration
Method: Antibiotic spectrum. […] Procedures were as follows:
c. Obligate anaerobes. The assay was performed on solid medium, consisting of Brain Heart Infusion Broth (BBL) supplemented with 5% defibrinated sheep blood and 1% Ionagar (Colab). […] The plates were incubated at 37° C. for 48 hours under the oxygen-free conditions attained with a Gas-Pak (BBL) Brewer jar system.

Erwinia sp. = test: Growth inhibitory activity, antibiotic dilution technique; conditions: read-out: Minimum inhibitory concentration
Proteus rettgeri = test: Effect of inoculum size on susceptibility of Enterobacteriaceae; conditions: Providencia rettgeri
Klebsiella pneumoniae = test: as above
Citrobacter sp. = test: Growth inhibitory activity, antibiotic dilution technique
Listeria monocytogenes = test: as above; conditions: read-out: Minimum inhibitory concentration
Pasteurella multocida = test: as above; conditions: read-out: Minimum inhibitory concentration
Proteus mirabilis = test: Effect of inoculum size on susceptibility of Enterobacteriaceae
Enterobacter cloacae = test: as above
[7] = Antibiotic concentration in blood after intramuscular injection; conditions: mouse, im

What does the source list for `O=C(Cc1cccs1)N[C@@H]1C(=O)N2C(C(=O)[O-])=C(C[n+]3ccccc3)CS[C@H]12` [Cephaloridine]?
MIC (Escherichia coli; read-out: Minimum Inhibitory Concentration, Escherichia coli strain 1, A, Inoculum of 10^2 organisms): 2 µg/mL (≈ 4.81 µM); MIC (Escherichia coli; read-out: Minimum Inhibitory Concentration, Escherichia coli strain 1, B, Inoculum of 10^6 organisms): 8 µg/mL (≈ 19.3 µM); MIC (Escherichia coli; read-out: Minimum Inhibitory Concentration, Escherichia coli strain 2, A, Inoculum of 10^2 organisms): 4 µg/mL (≈ 9.63 µM); MIC (Escherichia coli; read-out: Minimum Inhibitory Concentration, Escherichia coli strain 2, B, Inoculum of 10^6 organisms): 16 µg/mL (≈ 38.5 µM); MIC (Escherichia coli; read-out: Minimum Inhibitory Concentration, Escherichia coli strain 3, A, Inoculum of 10^2 organisms): 2 µg/mL (≈ 4.81 µM); MIC (Escherichia coli; read-out: Minimum Inhibitory Concentration, Escherichia coli strain 3, B, Inoculum of 10^6 organisms): 4 µg/mL (≈ 9.63 µM); MIC (Escherichia coli; read-out: Minimum Inhibitory Concentration, Escherichia coli strain 4, A, Inoculum of 10^2 organisms): 2 µg/mL (≈ 4.81 µM); MIC (Escherichia coli; read-out: Minimum Inhibitory Concentration, Escherichia coli strain 4, B, Inoculum of 10^6 organisms): 4 µg/mL (≈ 9.63 µM); MIC (Escherichia coli; read-out: Minimum Inhibitory Concentration, Escherichia coli strain 5, A, Inoculum of 10^2 organisms): 4 µg/mL (≈ 9.63 µM); MIC (Escherichia coli; read-out: Minimum Inhibitory Concentration, Escherichia coli strain 5, B, Inoculum of 10^6 organisms): 8 µg/mL (≈ 19.3 µM); MIC (Escherichia coli; read-out: Minimum Inhibitory Concentration, Escherichia coli strain 6, A, Inoculum of 10^2 organisms): 2 µg/mL (≈ 4.81 µM); MIC (Escherichia coli; read-out: Minimum Inhibitory Concentration, Escherichia coli strain 6, B, Inoculum of 10^6 organisms): 8 µg/mL (≈ 19.3 µM); MIC (Escherichia coli; read-out: Minimum Inhibitory Concentration, Escherichia coli strain 7, A, Inoculum of 10^2 organisms): 2 µg/mL (≈ 4.81 µM); MIC (Escherichia coli; read-out: Minimum Inhibitory Concentration, Escherichia coli strain 7, B, Inoculum of 10^6 organisms): 4 µg/mL (≈ 9.63 µM); MICB /MICA (Staphylococcus Aureus; Lacking penicillinase, 3 strains): 1.6; MICB /MICA (Staphylococcus Aureus; Penicillinase producer, 26 strains): 20; MIC (Staphylococcus Aureus; Lacking penicillinase, 3 strains, A, Inoculum of 10^2 organisms): 0.025 µg/mL (≈ 0.0602 µM); MIC (Staphylococcus Aureus; Lacking penicillinase, 3 strains, B, inoculum of 10^6 organisms): 0.039 µg/mL (≈ 0.0939 µM); MIC (Staphylococcus Aureus; Penicillinase producer, 26 strains, A, Inoculum of 10^2 organisms): 0.077 µg/mL (≈ 0.185 µM); MIC (Staphylococcus Aureus; Penicillinase producer, 26 strains, B, inoculum of 10^6 organisms): 1.6 µg/mL (≈ 3.85 µM); effect of cell concentration on growth inhibitory activity (Staphylococcus Aureus; penicillinase-producing strains): sharply; MIC (Edwardsiella tarda): 1 µg/mL (≈ 2.41 µM); MIC (Enterobacter aerogenes; A, Inoculum of 10^2 organisms): 63 µg/mL (≈ 152 µM); MIC (Enterobacter aerogenes; B, Inoculum of 10^6 organisms): > 250 µg/mL; Relative Rate of Hydrolysis (benzylpenicillin = 100) [1]: 93; Relative Rate of Hydrolysis (benzylpenicillin = 100) [2]: 100; Relative Rate of Hydrolysis (benzylpenicillin = 100) [3]: 370; Relative Rate of Hydrolysis (benzylpenicillin = 100) [4]: 2; Relative Rate of Hydrolysis (benzylpenicillin = 100) [5]: 50; Relative Rate of Hydrolysis (benzylpenicillin = 100) [6]: 7900; MIC (Bacteroides Fragilis): 79 µg/mL (≈ 190 µM); MIC (Erwinia sp.): 2 µg/mL (≈ 4.81 µM); MIC (Proteus rettgeri; read-out: Minimum Inhibitory Concentration, Proteus rettgeri strain 1, A, Inoculum of 10^2 organisms): 4 µg/mL (≈ 9.63 µM); MIC (Proteus rettgeri; read-out: Minimum Inhibitory Concentration, Proteus rettgeri strain 1, B, Inoculum of 10^6 organisms): 250 µg/mL (≈ 602 µM); MIC (Proteus rettgeri; read-out: Minimum Inhibitory Concentration, Proteus rettgeri strain 2, A, Inoculum of 10^2 organisms): 0.25 µg/mL (≈ 0.602 µM); MIC (Proteus rettgeri; read-out: Minimum Inhibitory Concentration, Proteus rettgeri strain 2, B, Inoculum of 10^6 organisms): > 250 µg/mL; MIC (Proteus rettgeri; read-out: Minimum Inhibitory Concentration, Proteus rettgeri strain 3, A, Inoculum of 10^2 organisms): 16 µg/mL (≈ 38.5 µM); MIC (Proteus rettgeri; read-out: Minimum Inhibitory Concentration, Proteus rettgeri strain 3, B, Inoculum of 10^6 organisms): > 250 µg/mL; MIC (Klebsiella pneumoniae; read-out: Minimum Inhibitory Concentration, Klebsiella pneumoniae strain 1, A, Inoculum of 10^2 organisms): 2 µg/mL (≈ 4.81 µM); MIC (Klebsiella pneumoniae; read-out: Minimum Inhibitory Concentration, Klebsiella pneumoniae strain 1, B, Inoculum of 10^6 organisms): 4 µg/mL (≈ 9.63 µM); MIC (Klebsiella pneumoniae; read-out: Minimum Inhibitory Concentration, Klebsiella pneumoniae strain 2, A, Inoculum of 10^2 organisms): 2 µg/mL (≈ 4.81 µM); MIC (Klebsiella pneumoniae; read-out: Minimum Inhibitory Concentration, Klebsiella pneumoniae strain 2, B, Inoculum of 10^6 organisms): 8 µg/mL (≈ 19.3 µM); MIC (Klebsiella pneumoniae; read-out: Minimum Inhibitory Concentration, Klebsiella pneumoniae strain 3, A, Inoculum of 10^2 organisms): 2 µg/mL (≈ 4.81 µM); MIC (Klebsiella pneumoniae; read-out: Minimum Inhibitory Concentration, Klebsiella pneumoniae strain 3, B, Inoculum of 10^6 organisms): 16 µg/mL (≈ 38.5 µM); MIC (Klebsiella pneumoniae; read-out: Minimum Inhibitory Concentration, Klebsiella pneumoniae strain 4, A, Inoculum of 10^2 organisms): 2 µg/mL (≈ 4.81 µM); MIC (Klebsiella pneumoniae; read-out: Minimum Inhibitory Concentration, Klebsiella pneumoniae strain 4, B, Inoculum of 10^6 organisms): 8 µg/mL (≈ 19.3 µM); MIC (Klebsiella pneumoniae; read-out: Minimum Inhibitory Concentration, Klebsiella pneumoniae strain 5, A, Inoculum of 10^2 organisms): 2 µg/mL (≈ 4.81 µM); MIC (Klebsiella pneumoniae; read-out: Minimum Inhibitory Concentration, Klebsiella pneumoniae strain 5, B, Inoculum of 10^6 organisms): 16 µg/mL (≈ 38.5 µM); MIC (Klebsiella pneumoniae; read-out: Minimum Inhibitory Concentration, Klebsiella pneumoniae strain 6, A, Inoculum of 10^2 organisms): 2 µg/mL (≈ 4.81 µM); MIC (Klebsiella pneumoniae; read-out: Minimum Inhibitory Concentration, Klebsiella pneumoniae strain 6, B, Inoculum of 10^6 organisms): 16 µg/mL (≈ 38.5 µM); MIC (Citrobacter sp.; read-out: Minimum inhibitory concentration, Citrobacter sp., 1 strain): > 125 µg/mL; MIC (Citrobacter sp.; read-out: Minimum inhibitory concentration, Citrobacter sp., 4 strains, geometric mean when applicable): > 125 µg/mL; MIC (Listeria monocytogenes): 0.91 µg/mL (≈ 2.19 µM); MIC (Pasteurella multocida): 0.5 µg/mL (≈ 1.2 µM); MIC (Proteus mirabilis; read-out: Minimum Inhibitory Concentration, Proteus mirabilis strain 1, A, Inoculum of 10^2 organisms): 4 µg/mL (≈ 9.63 µM); MIC (Proteus mirabilis; read-out: Minimum Inhibitory Concentration, Proteus mirabilis strain 1, B, Inoculum of 10^6 organisms): 16 µg/mL (≈ 38.5 µM); MIC (Proteus mirabilis; read-out: Minimum Inhibitory Concentration, Proteus mirabilis strain 2, A, Inoculum of 10^2 organisms): 8 µg/mL (≈ 19.3 µM); MIC (Proteus mirabilis; read-out: Minimum Inhibitory Concentration, Proteus mirabilis strain 2, B, Inoculum of 10^6 organisms): 16 µg/mL (≈ 38.5 µM); MIC (Proteus mirabilis; read-out: Minimum Inhibitory Concentration, Proteus mirabilis strain 3, A, Inoculum of 10^2 organisms): 8 µg/mL (≈ 19.3 µM); MIC (Proteus mirabilis; read-out: Minimum Inhibitory Concentration, Proteus mirabilis strain 3, B, Inoculum of 10^6 organisms): 32 µg/mL (≈ 77 µM); MIC (Proteus mirabilis; read-out: Minimum Inhibitory Concentration, Proteus mirabilis strain 4, A, Inoculum of 10^2 organisms): 4 µg/mL (≈ 9.63 µM); MIC (Proteus mirabilis; read-out: Minimum Inhibitory Concentration, Proteus mirabilis strain 4, B, Inoculum of 10^6 organisms): 32 µg/mL (≈ 77 µM); MIC (Proteus mirabilis; read-out: Minimum Inhibitory Concentration, Proteus mirabilis strain 5, A, Inoculum of 10^2 organisms): 4 µg/mL (≈ 9.63 µM); MIC (Proteus mirabilis; read-out: Minimum Inhibitory Concentration, Proteus mirabilis strain 5, B, Inoculum of 10^6 organisms): 16 µg/mL (≈ 38.5 µM); MIC (Enterobacter cloacae; read-out: Minimum Inhibitory Concentration, Enterobacter cloacae strain 1, A, Inoculum of 10^2 organisms): 4 µg/mL (≈ 9.63 µM); MIC (Enterobacter cloacae; read-out: Minimum Inhibitory Concentration, Enterobacter cloacae strain 1, B, Inoculum of 10^6 organisms): > 250 µg/mL; MIC (Enterobacter cloacae; read-out: Minimum Inhibitory Concentration, Enterobacter cloacae strain 2, A, Inoculum of 10^2 organisms): 125 µg/mL (≈ 301 µM); MIC (Enterobacter cloacae; read-out: Minimum Inhibitory Concentration, Enterobacter cloacae strain 2, B, Inoculum of 10^6 organisms): > 250 µg/mL; MIC (Enterobacter cloacae; read-out: Minimum Inhibitory Concentration, Enterobacter cloacae strain 3, A, Inoculum of 10^2 organisms): 16 µg/mL (≈ 38.5 µM); MIC (Enterobacter cloacae; read-out: Minimum Inhibitory Concentration, Enterobacter cloacae strain 3, B, Inoculum of 10^6 organisms): 250 µg/mL (≈ 602 µM); MIC (Enterobacter cloacae; read-out: Minimum Inhibitory Concentration, Enterobacter cloacae strain 4, A, Inoculum of 10^2 organisms): > 250 µg/mL; MIC (Enterobacter cloacae; read-out: Minimum Inhibitory Concentration, Enterobacter cloacae strain 4, B, Inoculum of 10^6 organisms): > 250 µg/mL; MIC (Enterobacter cloacae; read-out: Minimum Inhibitory Concentration, Enterobacter cloacae strain 5, A, Inoculum of 10^2 organisms): 63 µg/mL (≈ 152 µM); MIC (Enterobacter cloacae; read-out: Minimum Inhibitory Concentration, Enterobacter cloacae strain 5, B, Inoculum of 10^6 organisms): > 250 µg/mL; half-life [7]: 22 min; Cmax ([7]; 20 mg/kg): 23000 ng/mL

— US4100346A, “Certain 7(o-amino-methyl- or methylaminomethylphenyl- or cyclohexadienyl- or thienylacetamide)-3[1-carboxymethyl-(or ethyl- or propyl-)-tetrazol-5-ylthiomethyl]-3-cephem-4-carboxylic acids” (Bristol-Myers Company, priority 1976, dated 1978)
